Several values for one entry are separate records, joined by “and”; a condition that tells them apart may be missing. Identical values can stand only once. Like-named read-outs stand apart in the source and are kept apart here. No end group written: not given here.
Key:
[1] = in vitro; type: cell-based, human; conditions: human, human red blood cells, pH 7, hemolytic assay, concentration at 50% hemolysis, 1 hour at 37° C.; read-out: LD50
[2] = system: S. pyogenes ATCC19615; experiment: Antimicrobial assays II, NCCLS broth microdilution MIC; type: cell-based, Streptococcus pyogenes; conditions: mean of three, in µg/mL
[3] = system: P. aeruginosa H774; type: cell-based, Pseudomonas aeruginosa; set-up: key to FIC Index: FIC = 0.25 + MIC antibiotic in combination / MIC alone; ≤0.5 = synergy; conditions: P. aeruginosa H744; nalidixic acid + peptide at ¼ MIC; 0.5 or less = synergy
Summary of the method: (§1)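 FIC index, computed as 0.25 plus the ratio of combination to single-agent antibiotic MIC, defines synergy when 0.5 or below. Peptide fixed at one quarter MIC while chloramphenicol or nalidixic acid was serially diluted two-fold; antibiotic-alone MICs served as baselines.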

[4] = system: P. aeruginosa; type: cell-based, Pseudomonas aeruginosa; set-up: key to FIC Index: FIC = 0.25 + MIC antibiotic in combination / MIC alone; ≤0.5 = synergy; conditions: P. aeruginosa H744; MIC of nalidixic acid with peptide at ¼ MIC
Summary of the method: as §1

[5] = system: P. aeruginosa H374; type: cell-based, Pseudomonas aeruginosa; set-up: key to FIC Index: FIC = 0.25 + MIC antibiotic in combination / MIC alone; ≤0.5 = synergy; conditions: for MIC Cm-comb.: MIC of chloramphenicol with peptide at ¼ MIC; for MIC Nal-comb.: MIC of nalidixic acid with peptide at ¼ MIC; for FIC Index: 0.5 or less = synergy
Summary of the method: as §1

[6] = system: S. aureus (MRSA); type: cell-based, Staphylococcus aureus; conditions: mean of three; 16 to 20 hours at 35° C.
[7] = system: S. pneumoniae C718; experiment: Antimicrobial assays II, NCCLS broth microdilution MIC; type: cell-based, Streptococcus pneumoniae; conditions: mean of three
[8] = system: SW480; experiment: Anti-cancer assay, MTT, LD50; type: cell-based; conditions: SW480 colon adenocarcinoma line, 24 hours with peptide
Description: (§2) Numbers are LD50 values (μg/mL).

[9] = system: BMKC; experiment: Anti-cancer assay, MTT, LD50; type: cell-based; conditions: BMKC cloned melanoma line, 24 hours with peptide
Description: as §2

[10] = system: MCF7; experiment: Anti-cancer assay, MTT, LD50; type: cell-based; conditions: MCF7 breast adenocarcinoma line, MTT, 24 hours with peptide
Description: as §2

[11] = system: HeLaS3; experiment: Anti-cancer assay, MTT, LD50; type: cell-based; conditions: 24 hours with peptide, cervical carcinoma
Description: as §2

[12] = system: H1299; experiment: Anti-cancer assay, MTT, LD50; type: cell-based; conditions: 24 hours with peptide, lung large cell carcinoma
Description: as §2

[13] = system: PC3; experiment: Anti-cancer assay, MTT, LD50; type: cell-based; conditions: 24 hours with peptide, prostate adenocarcinoma
Description: as §2

[14] = system: S. pneumoniae C719; experiment: Antimicrobial assays II, NCCLS broth microdilution MIC; type: cell-based, Streptococcus pneumoniae; conditions: mean of three, in µg/mL
[15] = system: S. pyogenes M76; experiment: as above; type: cell-based, Streptococcus pyogenes; conditions: mean of three; 16 to 20 hours at 35° C.
[16] = system: P. acne ATCC 6919; experiment: as above; type: cell-based, Propionibacterium acnes; conditions: mean of three, in µg/mL
[17] = system: WI38; conditions: MTT, 24 hours with peptide; normal fibroblast line
[18] = system: S. epidermidis C621; type: cell-based, Staphylococcus epidermidis; conditions: mean of three; 16 to 20 hours at 35° C.
[19] = in vitro; conditions: human, WI38 normal lung fibroblast cells, LD50 WI38, WI38 normal lung fibroblast line, MTT, 24 hours with peptide
[20] = system: Staphylococcus aureus ATCC 6538; experiment: Antimicrobial assay I, MIC by OD measurement; type: cell-based; conditions: 37° C. for 24 hours, absorbance 620 nm
[21] = system: Pseudomonas aeruginosa ATCC 9027; experiment: Antimicrobial assay I, MIC by OD measurement; type: cell-based; conditions: 37° C. for 24 hours, absorbance 620 nm
[22] = system: yeast (Saccharomyces cerevisiae); experiment: Antimicrobial assay I, yeast assay in RPMI 1640; type: cell-based; conditions: RPMI 1640 media
[23] = chloramphenicol + peptide at ¼ MIC
[24] = nalidixic acid + peptide at ¼ MIC, FIC=0.25+MIC comb/MIC alone

Compound | HC50 at 1 h [1] [µg/mL] | S. pyogenes MIC [2] | FIC Index [3] | MIC Nal-comb. [4] [µg/mL] | MIC Cm-comb. [5] [µg/mL] | MIC Nal-comb. [5] [µg/mL] | FIC Index [5, 23] | FIC Index [5, 24] | S. aureus (MRSA) MIC [6] [µg/mL] | S. pneumoniae MIC [7] [µg/mL] | LD50 SW480 [8] [µg/mL] | LD50 BMKC [9] [µg/mL] | LD50 MCF7 [10] [µg/mL] | H1299 LD50 [12] [µg/mL] | PC3 LD50 [13] [µg/mL] | S. pneumoniae MIC [14] | S. pyogenes M76 MIC [15] [µg/mL] | P. acne MIC [16] | S. epidermidis C621 MIC [18] [µg/mL] | CC50 at 24 h [19] [µg/mL] | further results
FAKKLAKKLKKLAKKLAKKWKL-OH [P72] | 110 | 16 | 0.75 | 312 | 8 | 2500 | 0.75 | 0.75 | 16 | > 128 | 82 | 290 | 93 | 160 | 63 | 16 | 16 | 2 | 4 | 125 | HeLaS3 LD50 [11]: 240 µg/mL; WI38 LD50 [17]: 125 µg/mL
GIGKFLKKAKKFGKAFVKILKK-NH2 [P42, reference compound] | – | 4 | 1.25 | 624 | 16 | 5000 | 1.25 | 1.25 | 16 | 32 | 34 | 140 | 31 | 150 | 66 | 8 | 4 | 2 | 2 | – | staph6538 (MIC) [20]: 10 µg/mL; paerug9027 (MIC) [21]: > (> indicates greater than 200 μg/mL); yeast (MIC or MFC) [22]: 200 µg/mL
FAKLLALALKKAL-NH2 [P97, FAKLLALALKKAL-NH2] | – | 4 and 8 | 0.375 | 78 | 16 | 5000 | 1.25 | 1.25 | 8 | 32 | – | – | – | – | – | 16 and 32 | 4 | 8 and 16 | 4 | – | staph6538 (MIC) [20]: 5 µg/mL; paerug9027 (MIC) [21]: 50 µg/mL; yeast (MIC or MFC) [22]: 50 µg/mL
FALLKALLKKAL-NH2 [P177, FALLKALLKKAL-NH2] | 400 | 4 | 0.75 | 312 | 8 | 5000 | 0.75 | 1.25 | 8 | 32 | 310 | 310 | 190 | – | – | 16 | 8 | 8 | 4 | 270 | –
CC(C)C[C@H](NC(=O)[C@H](C)NC(=O)[C@H](CC(C)C)NC(=O)[C@H](C)NC(=O)[C@H](CC(C)C)NC(=O)[C@H](CCCCN)NC(=O)[C@H](C)NC(=O)[C@H](CC(C)C)NC(=O)[C@H](CCCCN)NC(=O)[C@H](CCCCN)NC(=O)[C@H](C)NC(=O)[C@H](CC(C)C)NC(=O)[C@H](CCCCN)NC(=O)[C@H](C)NC(=O)[C@H](CC(C)C)NC(=O)[C@H](CCCCN)NC(=O)[C@H](CCCCN)NC(=O)[C@H](C)NC(=O)[C@@H](N)C(C)C)C(N)=O [P504] | 70 | 16 | 2.25 | 1248 | 16 | 5000 | 1.25 | 1.25 | 4 | 64 | – | – | – | – | – | 8 | 8 | 4 | 4 | – | –

— patent US20050209157A1, “Short bioactive peptides and methods for their use” (priority 2001, published 2005)
